Measured values reported in paper PMC5218480 (PLoS ONE, 2017).

Test system: MV-4-11 cells
Test: Gene expression microarray analysis (Affymetrix PrimeView) and GSEA
Assay type: cell-based, human
Set-up: RFU PODN (11730768_x_at) / Fold change /veh PODN (11730768_x_at) / RFU LINC00158 (11744669_a_at) / Fold change /veh LINC00158 (11744669_a_at) / RFU DUSP10 (11751237_a_at) / Fold change /veh DUSP10 (11751237_a_at) / RFU ID3 (11757404_x_at) / Fold change /veh ID3 (11757404_x_at) / RFU PLEKHG5 (11737974_s_at) / Fold change /veh PLEKHG5 (11737974_s_at) / RFU LRRC4B (11730491_at) / Fold change /veh LRRC4B (11730491_at) / RFU GIMAP4 (11747438_a_at) / Fold change /veh GIMAP4 (11747438_a_at) / RFU KRT8 (11758183_x_at) / Fold change /veh KRT8 (11758183_x_at) / RFU CNN1 (11734310_a_at) / Fold change /veh CNN1 (11734310_a_at) / RFU VPS37D (11726825_at) / Fold change /veh VPS37D (11726825_at) / RFU C10orf10 (11716522_x_at) / Fold change /veh C10orf10 (11716522_x_at) / RFU KIR2DL2 /// KIR2DL4 /// KIR2DL5A /// KIR2DL5B /// KIR2DS1 /// KIR2DS2 /// KIR2DS3 /// KIR2DS4 /// KIR3DL3 /// KIR3DL3 /// KIR3DS1 (11738374_at) / Fold change /veh KIR2DL2 /// KIR2DL4 /// KIR2DL5A /// KIR2DL5B /// KIR2DS1 /// KIR2DS2 /// KIR2DS3 /// KIR2DS4 /// KIR3DL3 /// KIR3DL3 /// KIR3DS1 (11738374_at) / RFU C1QL1 (11718748_at) / Fold change /veh C1QL1 (11718748_at) / RFU TMPRSS4 (11747572_a_at) / Fold change /veh TMPRSS4 (11747572_a_at) / RFU HAMP (11756126_x_at) / Fold change /veh HAMP (11756126_x_at) / RFU RNFT2 (11725882_a_at) / Fold change /veh RNFT2 (11725882_a_at) / RFU NR4A2 (11747474_a_at) / Fold change /veh NR4A2 (11747474_a_at) / RFU ABCC12 (11746883_a_at) / Fold change /veh ABCC12 (11746883_a_at) / RFU TMEM136 (11760407_x_at) / Fold change /veh TMEM136 (11760407_x_at) / RFU CLDN22 /// WWC2 (11732394_at) / Fold change /veh CLDN22 /// WWC2 (11732394_at) / RFU HLA-DPB1 (11760878_x_at) / Fold change /veh HLA-DPB1 (11760878_x_at) / RFU SPINT1 (11716480_a_at) / Fold change /veh SPINT1 (11716480_a_at) / RFU GAP43 (11754022_s_at) / Fold change /veh GAP43 (11754022_s_at) / RFU A4GNT (11735810_at) / Fold change /veh A4GNT (11735810_at) / RFU PRB3 (11715151_x_at) / Fold change /veh PRB3 (11715151_x_at) / RFU TUBB4B (11761932_at) / Fold change /veh TUBB4B (11761932_at) / RFU CAPN14 (11732068_a_at) / Fold change /veh CAPN14 (11732068_a_at) / RFU TMCC2 (11721928_a_at) / Fold change /veh TMCC2 (11721928_a_at) / RFU IRGQ (11745062_a_at) / Fold change /veh IRGQ (11745062_a_at) / RFU FAM174B (11720279_a_at) / Fold change /veh FAM174B (11720279_a_at) / RFU TMPRSS4 (11748680_a_at) / Fold change /veh TMPRSS4 (11748680_a_at) / RFU FAM212B (11763350_a_at) / Fold change /veh FAM212B (11763350_a_at) / RFU PLEKHG5 (11743358_a_at) / Fold change /veh PLEKHG5 (11743358_a_at) / RFU ZSCAN30 (11745921_a_at) / Fold change /veh ZSCAN30 (11745921_a_at) / RFU CMKLR1 (11741424_a_at) / Fold change /veh CMKLR1 (11741424_a_at) / RFU LOC101060620 /// MAPK8IP1 (11723275_at) / Fold change /veh LOC101060620 /// MAPK8IP1 (11723275_at) / RFU SPTSSB (11747773_x_at) / Fold change /veh SPTSSB (11747773_x_at) / RFU PRSS12 (11739890_at) / Fold change /veh PRSS12 (11739890_at) / RFU BIN1 (11741810_x_at) / Fold change /veh BIN1 (11741810_x_at) / RFU WNT11 (11732464_a_at) / Fold change /veh WNT11 (11732464_a_at) / RFU C10orf10 (11716521_a_at) / Fold change /veh C10orf10 (11716521_a_at) / RFU C5orf56 (11738089_at) / Fold change /veh C5orf56 (11738089_at) / RFU CYB561 (11721691_x_at) / Fold change /veh CYB561 (11721691_x_at) / RFU ANKRD19P (11752326_a_at) / Fold change /veh ANKRD19P (11752326_a_at) / RFU OR2T12 /// OR2T33 /// OR2T8 (11738714_s_at) / Fold change /veh OR2T12 /// OR2T33 /// OR2T8 (11738714_s_at) / RFU VCAN (11748164_a_at) / Fold change /veh VCAN (11748164_a_at) / RFU JSRP1 (11732532_at) / Fold change /veh JSRP1 (11732532_at) / RFU KRTAP10-11 (11738290_x_at) / Fold change /veh KRTAP10-11 (11738290_x_at) / RFU MYO3A (11730013_a_at) / Fold change /veh MYO3A (11730013_a_at) / RFU EBF3 (11725865_a_at) / Fold change /veh EBF3 (11725865_a_at) / RFU CAMK2N1 (11719241_x_at) / Fold change /veh CAMK2N1 (11719241_x_at) / RFU C5orf56 (11738088_a_at) / Fold change /veh C5orf56 (11738088_a_at) / RFU OLFML3 (11715873_a_at) / Fold change /veh OLFML3 (11715873_a_at) / RFU LOC100653217 /// NTM (11731650_a_at) / Fold change /veh LOC100653217 /// NTM (11731650_a_at) / RFU MAPK11 (11762145_a_at) / Fold change /veh MAPK11 (11762145_a_at) / RFU FIZ1 (11724087_x_at) / Fold change /veh FIZ1 (11724087_x_at) / RFU OASL (11726364_x_at) / Fold change /veh OASL (11726364_x_at) / RFU SOX15 (11748057_x_at) / Fold change /veh SOX15 (11748057_x_at) / RFU CD79A (11719716_a_at) / Fold change /veh CD79A (11719716_a_at) / RFU HIST1H1D (11736915_at) / Fold change /veh HIST1H1D (11736915_at) / RFU CASKIN2 (11723855_a_at) / Fold change /veh CASKIN2 (11723855_a_at) / RFU LOC730098 (11760151_x_at) / Fold change /veh LOC730098 (11760151_x_at) / RFU OR4N2 (11742367_at) / Fold change /veh OR4N2 (11742367_at) / RFU PRRT2 (11749266_a_at) / Fold change /veh PRRT2 (11749266_a_at) / RFU SNX32 (11753110_a_at) / Fold change /veh SNX32 (11753110_a_at) / RFU CDHR5 (11726645_a_at) / Fold change /veh CDHR5 (11726645_a_at) / RFU RCAN1 (11760418_a_at) / Fold change /veh RCAN1 (11760418_a_at) / RFU FAM167A (11723789_a_at) / Fold change /veh FAM167A (11723789_a_at) / RFU FAM26E (11764081_at) / Fold change /veh FAM26E (11764081_at) / RFU ISYNA1 (11749810_s_at) / Fold change /veh ISYNA1 (11749810_s_at) / RFU ACY1 (11761880_at) / Fold change /veh ACY1 (11761880_at) / RFU 11764098_at / Fold change /veh 11764098_at / RFU SAMD14 (11745864_x_at) / Fold change /veh SAMD14 (11745864_x_at) / RFU NPB (11741838_a_at) / Fold change /veh NPB (11741838_a_at) / RFU TMPRSS6 (11731388_a_at) / Fold change /veh TMPRSS6 (11731388_a_at) / RFU KRTAP10-2 (11738614_at) / Fold change /veh KRTAP10-2 (11738614_at) / RFU ARHGAP8 /// PRR5-ARHGAP8 (11727945_x_at) / Fold change /veh ARHGAP8 /// PRR5-ARHGAP8 (11727945_x_at) / RFU KRTAP5-7 /// NADSYN1 (11734609_at) / Fold change /veh KRTAP5-7 /// NADSYN1 (11734609_at) / RFU RASL12 (11751679_a_at) / Fold change /veh RASL12 (11751679_a_at) / RFU CDKN2B (11736163_a_at) / Fold change /veh CDKN2B (11736163_a_at) / RFU PRF1 (11729649_at) / Fold change /veh PRF1 (11729649_at) / RFU, ZNF638 /// ZNF638-IT1 / Fold change vs veh, ZNF638 /// ZNF638-IT1 / RFU, PANK3 / Fold change vs veh, PANK3 / RFU, SH3YL1 / Fold change vs veh, SH3YL1 / RFU, ZEB2 / Fold change vs veh, ZEB2 / RFU, NRIP1 / Fold change vs veh, NRIP1 / RFU, PTTG1IP / Fold change vs veh, PTTG1IP / RFU, CAPN2 / Fold change vs veh, CAPN2 / RFU, MED14 / Fold change vs veh, MED14 / RFU, SNORA58 / Fold change vs veh, SNORA58 / RFU, C1orf63 / Fold change vs veh, C1orf63 / RFU, LRRFIP1 / Fold change vs veh, LRRFIP1 / RFU, NDUFAF7 / Fold change vs veh, NDUFAF7 / RFU, SLC12A2 / Fold change vs veh, SLC12A2 / RFU, IBTK / Fold change vs veh, IBTK / RFU, ESF1 / Fold change vs veh, ESF1 / Fold change vs veh, TMEM50B / RFU, TAOK1 / Fold change vs veh, TAOK1 / RFU, ACBD3 / Fold change vs veh, ACBD3 / RFU, TMA16 / Fold change vs veh, TMA16 / RFU, RWDD3 / Fold change vs veh, RWDD3 / RFU, BCAT1 / Fold change vs veh, BCAT1 / RFU, EDEM3 / Fold change vs veh, EDEM3 / RFU, TMEM33 / Fold change vs veh, TMEM33 / RFU, WDR75 / Fold change vs veh, WDR75 / RFU, AHCTF1 / Fold change vs veh, AHCTF1 / RFU, TFRC / Fold change vs veh, TFRC / RFU, ZDHHC17 / Fold change vs veh, ZDHHC17 / RFU, NOM1 / Fold change vs veh, NOM1 / RFU, ARL8B / Fold change vs veh, ARL8B / RFU, ZBTB11 / Fold change vs veh, ZBTB11 / RFU, TAMM41 / Fold change vs veh, TAMM41 / RFU, KIAA1704 /// LOC100996395 / Fold change vs veh, KIAA1704 /// LOC100996395 / RFU, ING1 / Fold change vs veh, ING1 / RFU, TRMT61B / Fold change vs veh, TRMT61B / RFU, FUBP3 / Fold change vs veh, FUBP3 / RFU, TP53 / Fold change vs veh, TP53 / RFU, TNKS2 / Fold change vs veh, TNKS2 / RFU, ZFP14 / Fold change vs veh, ZFP14 / RFU, ACTR2 / Fold change vs veh, ACTR2 / RFU, PPP3R1 / Fold change vs veh, PPP3R1 / RFU, PIK3R1 / Fold change vs veh, PIK3R1 / RFU, HNRNPA1 / Fold change vs veh, HNRNPA1 / RFU, RNF170 / Fold change vs veh, RNF170 / RFU, ZNF28 / Fold change vs veh, ZNF28 / RFU, RNGTT / Fold change vs veh, RNGTT / RFU, OGT / Fold change vs veh, OGT / RFU, BRD1 / Fold change vs veh, BRD1 / RFU, MARS / Fold change vs veh, MARS / RFU, ZNF655 / Fold change vs veh, ZNF655 / RFU, FAHD1 / Fold change vs veh, FAHD1 / RFU, BDP1 / Fold change vs veh, BDP1 / RFU, LRRCC1 / Fold change vs veh, LRRCC1 / RFU, ARID1A / Fold change vs veh, ARID1A / RFU, ZNF146 / Fold change vs veh, ZNF146 / RFU, ZNF330 / Fold change vs veh, ZNF330 / RFU, GPN3 / Fold change vs veh, GPN3 / RFU, C9orf123 / Fold change vs veh, C9orf123 / RFU, N4BP2L2 / Fold change vs veh, N4BP2L2 / RFU, ARFIP1 / Fold change vs veh, ARFIP1 / RFU, FAM179B / Fold change vs veh, FAM179B / RFU, BCL10 / Fold change vs veh, BCL10 / RFU, UHRF1BP1L / Fold change vs veh, UHRF1BP1L / RFU, BET1 / Fold change vs veh, BET1 / RFU, CNOT2 / Fold change vs veh, CNOT2 / RFU, ZNF268 / Fold change vs veh, ZNF268 / Fold change vs veh, ZNF507 / RFU, DGCR2 / Fold change vs veh, DGCR2 / RFU, WDSUB1 / Fold change vs veh, WDSUB1 / Fold change vs veh, HSP90B1 /// MIR3652 / RFU, ADSS / Fold change vs veh, ADSS / RFU, GK / Fold change vs veh, GK / RFU, ZNF148 / Fold change vs veh, ZNF148 / RFU, TAF9 / Fold change vs veh, TAF9 / RFU, SLC1A5 / Fold change vs veh, SLC1A5 / RFU, SLMO2 / Fold change vs veh, SLMO2 / RFU, ABCC4 / Fold change vs veh, ABCC4 / RFU, LOC101060439 /// RAP1B / Fold change vs veh, LOC101060439 /// RAP1B / RFU, RFX7 / Fold change vs veh, RFX7 / RFU, GTPBP10 / Fold change vs veh, GTPBP10 / RFU, CNEP1R1 / Fold change vs veh, CNEP1R1 / RFU, BIVM-ERCC5 /// ERCC5 / Fold change vs veh, BIVM-ERCC5 /// ERCC5 / RFU, ILF3 / Fold change vs veh, ILF3 / RFU 11762660_at / Fold change /veh 11762660_at / RFU VCAN (11757783_s_at) / Fold change /veh VCAN (11757783_s_at) / RFU DDX43 (11728927_at) / Fold change /veh DDX43 (11728927_at) / RFU KRT8 (11758188_x_at) / Fold change /veh KRT8 (11758188_x_at) / RFU NKD1 (11759106_at) / Fold change /veh NKD1 (11759106_at) / RFU SRD5A1 (11742802_a_at) / Fold change /veh SRD5A1 (11742802_a_at) / RFU TPSAB1 /// TPSB2 (11721975_s_at) / Fold change /veh TPSAB1 /// TPSB2 (11721975_s_at) / RFU GSTM3 (11746129_a_at) / Fold change /veh GSTM3 (11746129_a_at) / RFU IL23R (11737362_x_at) / Fold change /veh IL23R (11737362_x_at) / RFU TMEM51 (11727254_a_at) / Fold change /veh TMEM51 (11727254_a_at) / RFU PIWIL2 (11732686_x_at) / Fold change /veh PIWIL2 (11732686_x_at) / RFU ORM1 (11744905_x_at) / Fold change /veh ORM1 (11744905_x_at) / RFU CCDC152 (11743942_at) / Fold change /veh CCDC152 (11743942_at) / RFU ECM1 (11717891_a_at) / Fold change /veh ECM1 (11717891_a_at) / RFU IL23R (11748794_a_at) / Fold change /veh IL23R (11748794_a_at) / RFU TNFAIP8L3 (11732012_x_at) / Fold change /veh TNFAIP8L3 (11732012_x_at) / RFU MBOAT4 (11741988_at) / Fold change /veh MBOAT4 (11741988_at) / RFU 11764193_at / Fold change /veh 11764193_at / RFU TMEM53 (11763286_at) / Fold change /veh TMEM53 (11763286_at) / RFU MAGEB2 (11727129_at) / Fold change /veh MAGEB2 (11727129_at) / RFU TMEM200A (11744735_a_at) / Fold change /veh TMEM200A (11744735_a_at) / RFU CCDC152 (11751479_a_at) / Fold change /veh CCDC152 (11751479_a_at) / RFU FAM211A (11726209_a_at) / Fold change /veh FAM211A (11726209_a_at) / RFU RGS16 (11746705_a_at) / Fold change /veh RGS16 (11746705_a_at) / RFU VCAN (11755009_s_at) / Fold change /veh VCAN (11755009_s_at) / RFU RHOB (11743442_s_at) / Fold change /veh RHOB (11743442_s_at) / RFU RGS16 (11720943_a_at) / Fold change /veh RGS16 (11720943_a_at) / RFU RGS16 (11720944_at) / Fold change /veh RGS16 (11720944_at) / RFU, VPS4B / Fold change vs veh, VPS4B / RFU, CREB1 / Fold change vs veh, CREB1 / RFU, DNAJC13 / Fold change vs veh, DNAJC13 / RFU, GNAQ / Fold change vs veh, GNAQ / RFU, CDK5R1 / Fold change vs veh, CDK5R1 / RFU, ZRANB3 / Fold change vs veh, ZRANB3 / RFU, CUL4A / Fold change vs veh, CUL4A / RFU, CCNY / Fold change vs veh, CCNY / RFU, UFL1 / Fold change vs veh, UFL1 / RFU, COG3 / Fold change vs veh, COG3 / RFU, DIAPH2 / Fold change vs veh, DIAPH2 / RFU, SKA2 / Fold change vs veh, SKA2 / RFU, AFF3 / Fold change vs veh, AFF3 / RFU, LMF1 / Fold change vs veh, LMF1 / RFU, IPO11 / Fold change vs veh, IPO11 / RFU, DFFB / Fold change vs veh, DFFB / RFU, FOXP1 / Fold change vs veh, FOXP1 / RFU, CARD8 / Fold change vs veh, CARD8 / RFU, STRN3 / Fold change vs veh, STRN3 / RFU, ADK / Fold change vs veh, ADK / RFU, RASSF2 / Fold change vs veh, RASSF2 / RFU, WIPF1 / Fold change vs veh, WIPF1 / RFU, LARP1B / Fold change vs veh, LARP1B / RFU, RASA1 / Fold change vs veh, RASA1 / RFU, RB1 / Fold change vs veh, RB1 / RFU, PPFIA1 / Fold change vs veh, PPFIA1 / RFU, MAT2A / Fold change vs veh, MAT2A / RFU, CCT5 / Fold change vs veh, CCT5 / RFU, WDR92 / Fold change vs veh, WDR92 / RFU, CUX1 / Fold change vs veh, CUX1 / RFU, TTC7A / Fold change vs veh, TTC7A / RFU, TMEM135 / Fold change vs veh, TMEM135 / RFU, DEPTOR / Fold change vs veh, DEPTOR / RFU, CPM / Fold change vs veh, CPM / RFU, DNAJB6 / Fold change vs veh, DNAJB6 / RFU, CACNA2D3 / Fold change vs veh, CACNA2D3 / RFU, DTX4 / Fold change vs veh, DTX4 / RFU, TFCP2 / Fold change vs veh, TFCP2 / RFU, GMCL1 /// GMCL1P1 / Fold change vs veh, GMCL1 /// GMCL1P1 / RFU, AEBP2 / Fold change vs veh, AEBP2 / RFU, SNHG1 /// SNORD22 /// SNORD25 /// SNORD26 /// SNORD27 /// SNORD28 /// SNORD29 /// SNORD31 / Fold change vs veh, SNHG1 /// SNORD22 /// SNORD25 /// SNORD26 /// SNORD27 /// SNORD28 /// SNORD29 /// SNORD31 / Fold change (Aza/veh), C12orf56 (ProbeSet 11735607_a_at) / Fold change (ACY-1035/veh), C12orf56 (ProbeSet 11735607_a_at) / Fold change (Aza/veh), FGFR1OP (ProbeSet 11751329_s_at) / Fold change (ACY-1035/veh), FGFR1OP (ProbeSet 11751329_s_at) / Fold change (Aza/veh), VPS36 (ProbeSet 11739960_a_at) / Fold change (ACY-1035/veh), VPS36 (ProbeSet 11739960_a_at) / RFU SYPL1 (11715823_x_at) / Fold change /veh SYPL1 (11715823_x_at) / RFU IGFBP7 (11715501_s_at) / Fold change /veh IGFBP7 (11715501_s_at) / RFU REEP3 (11722064_at) / Fold change /veh REEP3 (11722064_at) / RFU IGLL1 (11728026_x_at) / Fold change /veh IGLL1 (11728026_x_at): dose or concentration left out as unconfirmed
Details: MV-4-11 cells, 48 hours

## Nc1ccc(-c2cccs2)cc1NC(=O)c1ccc2c(c1)cc(C1CC1)n2CCN1CCOCC1 [ACY-1035]
  Fold change /veh NPB (11741838_a_at): 0.93
